Results reported in ChEMBL document CHEMBL1142715, “Discovery of new tetracyclic tetrahydrofuran derivatives as potential broad-spectrum psychotropic agents” (J Med Chem, 2005).

Assays:
D(3) dopamine receptor = D(3) dopamine receptor (Homo sapiens, UniProt P35462)
Description: Inhibition of [125I]iodosulpiride binding to human Dopamine receptor D3

[1] = target: Norepinephrine transporter (Rattus norvegicus, UniProt Q9WTR4); assay: Inhibition of [3H]nisoxetine binding to rat Norepinephrine transporter
[2] = target: T1, Adrenergic receptor alpha-1 (Rattus norvegicus, UniProt P15823+P23944+P43140)
T1 sequence (P15823 whole entry): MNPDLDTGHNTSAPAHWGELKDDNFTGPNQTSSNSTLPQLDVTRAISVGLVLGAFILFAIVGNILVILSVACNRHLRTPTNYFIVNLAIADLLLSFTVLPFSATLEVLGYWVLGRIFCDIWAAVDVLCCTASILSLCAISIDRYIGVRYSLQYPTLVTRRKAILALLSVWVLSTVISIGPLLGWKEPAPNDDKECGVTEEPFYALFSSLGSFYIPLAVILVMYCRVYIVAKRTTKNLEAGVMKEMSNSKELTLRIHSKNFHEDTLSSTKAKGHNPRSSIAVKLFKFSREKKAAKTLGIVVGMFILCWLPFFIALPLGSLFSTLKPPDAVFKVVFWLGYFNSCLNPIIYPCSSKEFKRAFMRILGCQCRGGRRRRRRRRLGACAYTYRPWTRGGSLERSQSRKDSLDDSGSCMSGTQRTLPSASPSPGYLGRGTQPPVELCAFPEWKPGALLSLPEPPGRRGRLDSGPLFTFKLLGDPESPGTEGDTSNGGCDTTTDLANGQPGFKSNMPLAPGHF
T1 sequence (P23944 whole entry): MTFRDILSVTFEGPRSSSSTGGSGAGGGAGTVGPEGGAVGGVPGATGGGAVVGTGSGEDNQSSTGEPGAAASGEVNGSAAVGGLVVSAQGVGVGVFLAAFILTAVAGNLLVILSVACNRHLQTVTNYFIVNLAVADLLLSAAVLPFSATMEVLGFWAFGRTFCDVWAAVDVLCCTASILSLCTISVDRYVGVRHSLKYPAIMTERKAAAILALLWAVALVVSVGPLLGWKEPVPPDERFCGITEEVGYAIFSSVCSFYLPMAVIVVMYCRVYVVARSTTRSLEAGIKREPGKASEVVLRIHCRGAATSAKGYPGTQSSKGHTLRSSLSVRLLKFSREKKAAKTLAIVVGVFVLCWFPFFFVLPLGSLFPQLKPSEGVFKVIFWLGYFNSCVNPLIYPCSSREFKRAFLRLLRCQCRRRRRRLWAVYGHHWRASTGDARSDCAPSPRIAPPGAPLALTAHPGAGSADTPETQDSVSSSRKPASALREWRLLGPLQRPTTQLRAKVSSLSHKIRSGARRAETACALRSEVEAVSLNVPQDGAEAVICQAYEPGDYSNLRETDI
T1 sequence (P43140 whole entry): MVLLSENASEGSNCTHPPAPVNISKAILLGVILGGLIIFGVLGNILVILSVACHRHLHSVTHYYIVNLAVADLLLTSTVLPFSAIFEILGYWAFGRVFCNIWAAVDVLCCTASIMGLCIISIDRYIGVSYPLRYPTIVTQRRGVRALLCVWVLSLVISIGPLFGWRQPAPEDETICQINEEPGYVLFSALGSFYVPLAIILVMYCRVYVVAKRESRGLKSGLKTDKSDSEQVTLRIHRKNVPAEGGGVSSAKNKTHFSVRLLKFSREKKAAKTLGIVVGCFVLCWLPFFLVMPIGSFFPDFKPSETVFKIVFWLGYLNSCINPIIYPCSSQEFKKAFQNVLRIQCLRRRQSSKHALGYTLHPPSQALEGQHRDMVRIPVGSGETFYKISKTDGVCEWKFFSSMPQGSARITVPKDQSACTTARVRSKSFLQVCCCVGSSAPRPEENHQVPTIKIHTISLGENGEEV
Description: Inhibition of [3H]prazosin binding to rat Alpha-1 adrenergic receptor

[3] = target: T2, 5-hydroxytryptamine receptor 2C (Homo sapiens, UniProt P28335)
T2 sequence (P28335 whole entry): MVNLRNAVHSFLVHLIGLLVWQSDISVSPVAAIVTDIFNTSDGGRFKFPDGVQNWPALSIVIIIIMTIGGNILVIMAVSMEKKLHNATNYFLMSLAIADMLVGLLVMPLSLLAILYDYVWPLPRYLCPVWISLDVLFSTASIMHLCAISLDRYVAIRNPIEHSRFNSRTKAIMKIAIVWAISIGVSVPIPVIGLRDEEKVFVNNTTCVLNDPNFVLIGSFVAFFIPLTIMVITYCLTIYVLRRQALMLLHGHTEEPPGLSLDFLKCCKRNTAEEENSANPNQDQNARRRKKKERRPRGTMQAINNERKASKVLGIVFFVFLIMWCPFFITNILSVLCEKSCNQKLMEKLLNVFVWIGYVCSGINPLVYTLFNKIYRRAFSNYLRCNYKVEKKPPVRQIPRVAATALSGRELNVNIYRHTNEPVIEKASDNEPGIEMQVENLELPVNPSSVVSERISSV
Description: Inhibition of [3H]mesulergine binding to human 5-hydroxytryptamine 2C receptor

[4] = target: 5-hydroxytryptamine receptor 7 (Homo sapiens, UniProt P34969)
Sequence of 5-hydroxytryptamine receptor 7 (P34969 whole entry): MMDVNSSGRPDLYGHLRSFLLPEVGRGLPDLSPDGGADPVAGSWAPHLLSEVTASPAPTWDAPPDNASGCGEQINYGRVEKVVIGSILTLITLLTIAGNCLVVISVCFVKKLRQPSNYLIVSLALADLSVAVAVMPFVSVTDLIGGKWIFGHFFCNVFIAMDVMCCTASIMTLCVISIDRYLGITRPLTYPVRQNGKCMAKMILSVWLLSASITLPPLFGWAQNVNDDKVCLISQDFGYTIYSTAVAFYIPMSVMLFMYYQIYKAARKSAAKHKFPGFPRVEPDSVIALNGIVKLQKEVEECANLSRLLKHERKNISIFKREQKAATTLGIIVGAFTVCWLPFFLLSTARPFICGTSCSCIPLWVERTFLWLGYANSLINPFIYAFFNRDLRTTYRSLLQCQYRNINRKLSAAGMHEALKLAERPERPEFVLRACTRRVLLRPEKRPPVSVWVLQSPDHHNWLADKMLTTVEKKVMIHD
Description: Inhibition of [3H]5-HT binding to human 5-hydroxytryptamine 7 receptor

Histamine H1 receptor = Histamine H1 receptor (Homo sapiens, UniProt P35367)
Sequence of Histamine H1 receptor (P35367 whole entry): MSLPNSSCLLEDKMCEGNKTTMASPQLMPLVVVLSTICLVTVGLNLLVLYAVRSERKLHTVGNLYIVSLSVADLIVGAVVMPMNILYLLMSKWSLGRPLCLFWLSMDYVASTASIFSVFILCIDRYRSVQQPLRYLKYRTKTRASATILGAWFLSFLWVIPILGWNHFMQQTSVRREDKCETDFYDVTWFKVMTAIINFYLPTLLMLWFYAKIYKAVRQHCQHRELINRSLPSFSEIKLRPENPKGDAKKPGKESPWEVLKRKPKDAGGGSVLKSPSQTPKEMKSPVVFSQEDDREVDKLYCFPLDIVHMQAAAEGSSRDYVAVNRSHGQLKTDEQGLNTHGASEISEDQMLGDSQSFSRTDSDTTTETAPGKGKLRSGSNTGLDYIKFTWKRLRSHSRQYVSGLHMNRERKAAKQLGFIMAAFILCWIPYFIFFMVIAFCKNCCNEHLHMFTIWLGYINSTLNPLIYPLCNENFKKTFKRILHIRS
Description: Inhibition of [3H]pyrilamine binding to human Histamine H1 receptor

D(1A) dopamine receptor = D(1A) dopamine receptor (Homo sapiens, UniProt P21728); assay: Inhibition of [3H]SCH-23390 binding to human Dopamine receptor D1
Sequence of D(1A) dopamine receptor (P21728 whole entry): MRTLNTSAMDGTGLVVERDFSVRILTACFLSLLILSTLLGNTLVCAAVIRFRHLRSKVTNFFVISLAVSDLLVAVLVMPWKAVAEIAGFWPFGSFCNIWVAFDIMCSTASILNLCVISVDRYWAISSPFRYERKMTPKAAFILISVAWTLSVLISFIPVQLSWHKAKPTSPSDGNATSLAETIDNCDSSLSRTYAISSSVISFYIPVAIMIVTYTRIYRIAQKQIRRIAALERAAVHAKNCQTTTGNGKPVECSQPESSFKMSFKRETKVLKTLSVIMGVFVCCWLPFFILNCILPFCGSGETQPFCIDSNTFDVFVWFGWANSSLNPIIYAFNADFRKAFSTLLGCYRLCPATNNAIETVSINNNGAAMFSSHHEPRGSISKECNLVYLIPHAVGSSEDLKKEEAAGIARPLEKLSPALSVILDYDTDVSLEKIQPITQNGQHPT

[5] = target: T3, Alpha-2A adrenergic receptor (Homo sapiens, UniProt P08913)
T3 sequence (P08913 whole entry): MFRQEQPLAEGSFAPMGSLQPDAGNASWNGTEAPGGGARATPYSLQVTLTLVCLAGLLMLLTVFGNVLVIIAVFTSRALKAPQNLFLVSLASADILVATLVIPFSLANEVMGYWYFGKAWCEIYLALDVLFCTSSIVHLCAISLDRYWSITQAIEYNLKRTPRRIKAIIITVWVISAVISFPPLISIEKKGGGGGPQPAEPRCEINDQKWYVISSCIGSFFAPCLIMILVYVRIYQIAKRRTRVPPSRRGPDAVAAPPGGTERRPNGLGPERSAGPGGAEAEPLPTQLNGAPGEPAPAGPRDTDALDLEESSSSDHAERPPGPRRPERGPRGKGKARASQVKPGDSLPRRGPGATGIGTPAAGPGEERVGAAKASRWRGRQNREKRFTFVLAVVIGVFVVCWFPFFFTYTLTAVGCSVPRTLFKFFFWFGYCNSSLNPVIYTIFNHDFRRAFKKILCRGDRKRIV
Description: Inhibition of [3H]rauwolscine binding to Alpha-2A adrenergic receptor

[6] = target: T4, Alpha-2C adrenergic receptor (Homo sapiens, UniProt P18825); assay: Inhibition of [3H]rauwolscine binding to Alpha-2C adrenergic receptor
T4 sequence (P18825 whole entry): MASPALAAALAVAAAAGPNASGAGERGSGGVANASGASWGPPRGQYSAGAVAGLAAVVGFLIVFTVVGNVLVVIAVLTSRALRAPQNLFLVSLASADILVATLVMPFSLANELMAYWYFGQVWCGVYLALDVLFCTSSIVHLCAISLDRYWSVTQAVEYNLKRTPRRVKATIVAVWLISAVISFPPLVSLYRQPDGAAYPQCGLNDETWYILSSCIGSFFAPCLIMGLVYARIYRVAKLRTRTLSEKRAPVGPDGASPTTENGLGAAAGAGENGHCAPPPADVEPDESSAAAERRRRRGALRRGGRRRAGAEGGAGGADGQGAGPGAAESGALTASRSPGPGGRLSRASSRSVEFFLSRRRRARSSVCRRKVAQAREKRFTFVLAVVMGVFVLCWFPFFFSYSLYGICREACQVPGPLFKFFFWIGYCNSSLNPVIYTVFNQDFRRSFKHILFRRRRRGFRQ

Rattus norvegicus [7] = assay: In vivo effective dose to inhibit tryptamine-induced bilateral convulsions in rats; type: functional
Rattus norvegicus [8] = assay: In vivo effective dose for reversal of tryptamine-induced cyanosis in rats; type: functional
Mus musculus = assay: In vivo effective dose for reversal of RO-4-1284 induced hypothermia in mouse; type: functional
Rattus norvegicus [9] = assay: In vivo effective dose to inhibit apomorphine induced agitation in rats upon subcutaneous administration; type: functional; settings: sc
Rattus norvegicus [10] = species on record: Rattus norvegicus; assay: Effective dose for antagonistic activity against m-chlorophenyl-piperazine induced anxiety in rats; type: functional
Rattus norvegicus [11] = assay: In vivo effective dose for reversal of tryptamine-induced backward locomotion in rats; type: functional
[12] = target: 5-hydroxytryptamine receptor 2A (Homo sapiens, UniProt P28223)
Sequence of 5-hydroxytryptamine receptor 2A (P28223 whole entry): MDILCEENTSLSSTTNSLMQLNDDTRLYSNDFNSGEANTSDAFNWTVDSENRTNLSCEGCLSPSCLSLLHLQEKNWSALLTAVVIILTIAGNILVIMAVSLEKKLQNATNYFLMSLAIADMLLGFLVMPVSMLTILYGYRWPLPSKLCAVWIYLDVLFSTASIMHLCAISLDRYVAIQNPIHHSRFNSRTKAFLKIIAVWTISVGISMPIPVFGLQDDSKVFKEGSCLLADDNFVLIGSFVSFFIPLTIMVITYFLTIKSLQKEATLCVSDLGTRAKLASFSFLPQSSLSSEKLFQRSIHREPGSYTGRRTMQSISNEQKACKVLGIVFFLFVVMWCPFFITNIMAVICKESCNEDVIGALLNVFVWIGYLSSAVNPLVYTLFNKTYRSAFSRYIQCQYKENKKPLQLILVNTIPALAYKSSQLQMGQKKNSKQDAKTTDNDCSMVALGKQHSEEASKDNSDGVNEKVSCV
Description: Inhibition of [125I]R91150 binding to human 5-hydroxytryptamine 2A receptor

Sequence of D(3) dopamine receptor (P35462 whole entry): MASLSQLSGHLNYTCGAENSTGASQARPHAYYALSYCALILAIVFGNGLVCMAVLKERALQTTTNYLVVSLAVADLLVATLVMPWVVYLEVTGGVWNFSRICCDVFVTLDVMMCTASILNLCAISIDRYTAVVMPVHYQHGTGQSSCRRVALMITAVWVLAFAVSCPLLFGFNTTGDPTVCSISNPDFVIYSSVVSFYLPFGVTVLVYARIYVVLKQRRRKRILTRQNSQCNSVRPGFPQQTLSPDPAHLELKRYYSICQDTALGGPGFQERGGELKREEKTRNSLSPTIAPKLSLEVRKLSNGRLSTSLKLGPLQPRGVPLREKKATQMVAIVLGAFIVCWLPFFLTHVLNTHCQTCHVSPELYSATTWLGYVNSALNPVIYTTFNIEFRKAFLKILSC
Sequence of Norepinephrine transporter (Q9WTR4 whole entry): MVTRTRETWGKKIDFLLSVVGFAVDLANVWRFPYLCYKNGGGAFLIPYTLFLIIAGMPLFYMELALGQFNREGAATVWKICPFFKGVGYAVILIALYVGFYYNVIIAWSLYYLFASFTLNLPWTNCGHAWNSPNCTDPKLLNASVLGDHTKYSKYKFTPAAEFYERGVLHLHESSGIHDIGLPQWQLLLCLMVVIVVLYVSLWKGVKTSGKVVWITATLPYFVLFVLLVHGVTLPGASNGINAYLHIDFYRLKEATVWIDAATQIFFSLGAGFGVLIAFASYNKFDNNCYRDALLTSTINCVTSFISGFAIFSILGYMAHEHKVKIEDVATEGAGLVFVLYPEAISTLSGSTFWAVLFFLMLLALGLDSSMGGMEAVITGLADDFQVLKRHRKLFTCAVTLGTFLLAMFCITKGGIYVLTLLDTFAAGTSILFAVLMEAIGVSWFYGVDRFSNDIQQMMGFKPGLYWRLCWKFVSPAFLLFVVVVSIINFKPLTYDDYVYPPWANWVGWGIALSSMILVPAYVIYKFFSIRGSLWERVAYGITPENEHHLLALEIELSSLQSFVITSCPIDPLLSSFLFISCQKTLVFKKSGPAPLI

SMILES: CN(C)C[C@H]1CC2c3ccccc3Oc3ccc(Br)cc3[C@H]2O1 (some centres undefined)
- Ki (D(3) dopamine receptor): 95 nM
- Ki [1]: 382 nM
- Ki [2]: 234 nM
- Ki [3]: 8.9 nM
- Ki [4]: 35 nM
- Ki (Histamine H1 receptor): 42 nM
- Ki (D(1A) dopamine receptor): 154 nM
- Ki [5]: 407 nM
- Ki [6]: 742 nM

SMILES: CN1CCN2c3ccccc3Cc3ccccc3C2C1 (centres undefined) [MIANSERIN]
- ED50 (Rattus norvegicus [7]): 0.24 mg/kg
- ED50 (Rattus norvegicus [8]): 0.18 mg/kg
- ED50 (Mus musculus): > 40 mg/kg
- Ki [1]: 101 nM
- ED50 (Rattus norvegicus [9]): > 10 mg/kg
- ED50 (Rattus norvegicus [10]): 1.26 mg/kg
- ED50 (Rattus norvegicus [11]): 0.55 mg/kg
- Ki [6]: 3.8 nM

SMILES: CN(C)C[C@H]1CC2c3ccccc3Oc3ccc(F)cc3[C@H]2O1 (some centres undefined)
- Ki [1]: 3.6 nM
- Ki [2]: 71 nM
- Ki [3]: 4.3 nM
- Ki [4]: 80 nM
- Ki (Histamine H1 receptor): 7.5 nM
- Ki [12]: > 5450 nM
- Ki [5]: 269 nM
- Ki [6]: 200 nM

SMILES: CN(C)C[C@H]1CC2c3ccccc3Sc3ccc(F)cc3[C@H]2O1 (stereo in doubt; (-)-8d)
- ED50 (Rattus norvegicus [7]): 0.0079 mg/kg
- ED50 (Rattus norvegicus [8]): 0.013 mg/kg
- Ki (D(3) dopamine receptor): 19 nM
- ED50 (Mus musculus): 0.025 mg/kg
- Ki [1]: 2 nM
- Ki [2]: 7.5 nM
- ED50 (Rattus norvegicus [9]): 0.13 mg/kg
- Ki [3]: 0.21 nM
- Ki [4]: 6.2 nM
- Ki (Histamine H1 receptor): 0.6 nM
- ED50 (Rattus norvegicus [10]): > 0.63 mg/kg
- Ki (D(1A) dopamine receptor): 3 nM
- Ki [5]: 79 nM
- ED50 (Rattus norvegicus [11]): 0.32 mg/kg
- Ki [6]: 73 nM

SMILES: CN1CCN(C2=Nc3cc(Cl)ccc3Nc3ccccc32)CC1 [CLOZAPINE]
- ED50 (Rattus norvegicus [7]): 0.22 mg/kg
- ED50 (Rattus norvegicus [8]): 0.26 mg/kg
- ED50 (Mus musculus): > 80 mg/kg
- ED50 (Rattus norvegicus [9]): 8.2 mg/kg
- ED50 (Rattus norvegicus [10]): > 2.5 mg/kg

SMILES: CN(C)C[C@H]1CC2c3ccccc3Sc3ccc(F)cc3[C@H]2O1 (stereo in doubt; 8d)
- Ki (D(3) dopamine receptor): 1.1 nM
- Ki [1]: 1.6 nM
- Ki [2]: 8.8 nM
- Ki [3]: < 0.42 nM
- Ki [4]: 6.6 nM
- Ki (Histamine H1 receptor): 0.52 nM
- Ki (D(1A) dopamine receptor): 5.2 nM
- Ki [5]: 66 nM
- Ki [6]: 59 nM

SMILES: Cc1nc2n(c(=O)c1CCN1CCC(c3noc4cc(F)ccc34)CC1)CCCC2 [RISPERIDONE]
- ED50 (Rattus norvegicus [7]): 0.037 mg/kg
- ED50 (Rattus norvegicus [8]): 0.002 mg/kg
- ED50 (Mus musculus): > 10 mg/kg
- Ki [1]: > 5450 nM
- ED50 (Rattus norvegicus [9]): 0.17 mg/kg
- ED50 (Rattus norvegicus [10]): > 0.31 mg/kg
- ED50 (Rattus norvegicus [11]): > 10 mg/kg

SMILES: CN(C)C[C@@H]1CC2c3ccccc3Oc3ccc(F)cc3[C@H]2O1 (some centres undefined)
- Ki [1]: 20 nM
- Ki [2]: 338 nM
- Ki [3]: 7.6 nM
- Ki [4]: 57 nM
- Ki (Histamine H1 receptor): 33 nM
- Ki [12]: > 5450 nM
- Ki [5]: 251 nM
- Ki [6]: 219 nM
